As a reminder, the IC50 is the midpoint of a concentration-inhibition curve. A higher IC50 goes with weaker potency in that assay.

Drawing on ChEMBL document CHEMBL2331288 (Bioorg Med Chem Lett, 2013), this text covers IC50 for 42 compounds.

Test [1] has as its target T1, Interstitial collagenase (Homo sapiens, UniProt P03956).
T1 sequence (P03956 whole entry): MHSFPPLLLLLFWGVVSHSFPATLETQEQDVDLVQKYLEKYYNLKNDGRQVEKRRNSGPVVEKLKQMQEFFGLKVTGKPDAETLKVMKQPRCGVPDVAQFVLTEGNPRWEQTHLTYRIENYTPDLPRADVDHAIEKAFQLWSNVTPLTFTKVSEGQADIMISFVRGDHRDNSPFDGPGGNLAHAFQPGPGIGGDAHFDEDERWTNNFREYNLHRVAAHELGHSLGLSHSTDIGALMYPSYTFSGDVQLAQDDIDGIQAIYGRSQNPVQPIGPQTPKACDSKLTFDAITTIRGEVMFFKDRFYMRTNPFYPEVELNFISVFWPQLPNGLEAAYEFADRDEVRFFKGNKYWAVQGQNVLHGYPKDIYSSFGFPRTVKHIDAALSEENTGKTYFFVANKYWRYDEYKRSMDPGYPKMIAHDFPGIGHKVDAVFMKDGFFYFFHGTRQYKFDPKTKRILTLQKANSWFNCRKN
Description: Inhibition of human recombinant MMP1 using succinylated gelatin as substrate incubated for 30 mins prior to substrate addition measured after 60 mins

Test [2] deals with 72 kDa type IV collagenase (Homo sapiens, UniProt P08253).
Chain of 72 kDa type IV collagenase (P08253 whole entry): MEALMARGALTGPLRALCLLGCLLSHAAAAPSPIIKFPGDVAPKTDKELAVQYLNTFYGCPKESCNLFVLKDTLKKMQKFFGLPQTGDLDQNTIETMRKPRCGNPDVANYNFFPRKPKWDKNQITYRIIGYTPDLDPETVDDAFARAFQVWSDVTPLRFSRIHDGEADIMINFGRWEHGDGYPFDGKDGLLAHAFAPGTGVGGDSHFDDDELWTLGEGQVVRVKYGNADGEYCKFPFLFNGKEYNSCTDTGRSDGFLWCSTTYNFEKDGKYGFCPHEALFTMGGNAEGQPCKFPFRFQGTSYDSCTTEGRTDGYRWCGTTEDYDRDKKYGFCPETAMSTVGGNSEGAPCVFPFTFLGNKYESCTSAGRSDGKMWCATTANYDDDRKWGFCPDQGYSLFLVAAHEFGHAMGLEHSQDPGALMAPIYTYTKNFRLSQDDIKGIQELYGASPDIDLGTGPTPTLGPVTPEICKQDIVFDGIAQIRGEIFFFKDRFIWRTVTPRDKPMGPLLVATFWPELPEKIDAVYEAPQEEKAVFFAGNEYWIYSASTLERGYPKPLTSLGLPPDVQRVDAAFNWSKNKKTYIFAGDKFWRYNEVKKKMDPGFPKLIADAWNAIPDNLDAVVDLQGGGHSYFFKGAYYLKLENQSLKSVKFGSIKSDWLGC
Description: Inhibition of human recombinant MMP2 using succinylated gelatin as substrate incubated for 30 mins prior to substrate addition measured after 60 mins

As for `O=C(/C=C/c1ccc(O)cc1)Nc1ccccc1F`, the IC50 in test [1] was 4230 nM; in test [2], 9.01 nM.
Regarding `O=C(/C=C/c1cccc(O)c1)Nc1ccccc1O`, the results for the IC50 in test [1] and in test [2] were 5210 nM and 5.57 nM, respectively.
For `Cc1cccc(NC(=O)/C=C/c2ccc(O)c(O)c2)c1`, the values for the IC50 in test [1] and in test [2] were 4800 nM and 1720 nM, respectively.
Turning to `O=C(/C=C/c1ccc(O)c(O)c1)Nc1ccccc1Cl`, the IC50 in test [1] was determined as 3710 nM; in test [2], 9.11 nM.
For `COc1cccc(NC(=O)/C=C/c2cccc(O)c2)c1` the same measures were 5160 nM and 1670 nM.
Take `O=C(/C=C/c1ccccc1)Nc1ccc(O)cc1`: the figures for the IC50 in test [1] and in test [2] were 5400 nM and 5.28 nM, respectively.
Regarding `O=C(/C=C/c1ccc(O)c(O)c1)Nc1ccc(O)cc1`, the IC50 in test [1] came to 5830 nM; in test [2] it was 3.28 nM.
Turning to `O=C(/C=C/c1cccc(O)c1)Nc1ccc(Cl)cc1`, the half-maximal inhibitory concentration (IC50) came to 3500 nM in test [1] and 9.11 nM in test [2].
For `Cc1cccc(NC(=O)/C=C/c2ccc(O)cc2)c1`, in that order: 4880 nM and 1750 nM.
For `O=C(/C=C/c1cccc(O)c1)Nc1ccccc1` [3-HYDROXY-CINNAMANILIDE], in that order: 3400 nM and 8.41 nM.
`O=C(/C=C/c1cccc(O)c1)Nc1ccc(F)cc1`: the figures for the IC50 in test [1] and in test [2] were 4390 nM and 8.59 nM, respectively.
For `O=C(/C=C/c1cccc(O)c1)NCCc1ccccc1`, in that order: 3600 nM and 8.46 nM.
For `Cc1ccc(NC(=O)/C=C/c2ccc(O)c(O)c2)cc1`, in that order: 4830 nM and 3.55 nM.
In the case of `O=C(/C=C/c1cccc(O)c1)Nc1cccc(F)c1`, the IC50 was determined as 4210 nM in test [1] and 1870 nM in test [2].
For `Cc1ccccc1NC(=O)/C=C/c1ccc(O)c(O)c1`, in that order: 4710 nM and 5.97 nM.
As for `O=C(/C=C/c1cccc(O)c1)NCc1ccccc1`, the IC50 in test [1] turned out to be 3600 nM; in test [2], 8.44 nM.
On to `COc1ccccc1NC(=O)/C=C/c1ccc(O)c(O)c1`, for which the IC50 in test [1] was determined as 5250 nM; in test [2], 5.27 nM.
For `O=C(/C=C/c1ccc(O)c(O)c1)Nc1ccccc1F` the same measures were 4250 nM and 8.92 nM.
For the compound `O=C(/C=C/c1ccc(O)c(O)c1)Nc1ccc(F)cc1`, the values for the IC50 in test [1] and in test [2] were 4370 nM and 8.31 nM, respectively.
Turning to `Cc1ccccc1NC(=O)/C=C/c1ccccc1` [N-O-TOLYLCINNAMAMIDE], the IC50 in test [1] worked out at 4520 nM; in test [2], 6.41 nM.
On to `Cc1ccccc1NC(=O)/C=C/c1cccc(O)c1`, for which the IC50 in test [1] turned out to be 4740 nM; in test [2], 5.73 nM.
For `Cc1ccc(NC(=O)/C=C/c2ccccc2)cc1` [N-P-TOLYLCINNAMAMIDE], the IC50 in test [1] was determined as 4670 nM; in test [2] it was 5.46 nM.
Regarding `O=C(/C=C/c1ccc(O)cc1)NCCc1ccccc1`, the IC50 was determined as 3220 nM in test [1] and 8.37 nM in test [2].
For `O=C(/C=C/c1ccc(O)c(O)c1)Nc1ccccc1`, in that order: 3240 nM and 8.05 nM.
For `O=C(/C=C/c1cccc(O)c1)Nc1ccccc1Cl` the same measures were 3260 nM and 9.41 nM.
For `O=C(O)/C=C/c1ccc(O)c(O)c1` [CAFFEIC ACID] the same measures were 239 nM and 24.3 nM.
With `COc1ccc(NC(=O)/C=C/c2ccc(O)cc2)cc1`, the values for the IC50 in test [1] and in test [2] were 5290 nM and 4.09 nM, respectively.
For `O=C(/C=C/c1ccc(O)c(O)c1)Nc1ccccc1O`, in that order: 5620 nM and 5.09 nM.
Turning to `COc1ccc(NC(=O)/C=C/c2ccc(O)c(O)c2)cc1`, the IC50 in test [1] was 5320 nM; in test [2], 3.42 nM.
For `O=C(/C=C/c1ccc(O)c(O)c1)Nc1cccc(O)c1`, the results for the IC50 in test [1] and in test [2] were 5770 nM and 1590 nM, respectively.
For `O=C(/C=C/c1ccc(O)cc1)Nc1cccc(F)c1`, in that order: 4430 nM and 1580 nM.
For `COc1cccc(NC(=O)/C=C/c2ccc(O)cc2)c1` the same measures were 5220 nM and 1760 nM.
For `O=C(/C=C/c1ccc(O)cc1)NCc1ccccc1` the same measures were 3140 nM and 8.32 nM.
In the case of `COc1cccc(NC(=O)/C=C/c2ccc(O)c(O)c2)c1`, the IC50 is 5290 nM in test [1] and 1680 nM in test [2].
For `O=C(/C=C/c1ccc(O)c(O)c1)Nc1ccc(Cl)cc1`, in that order: 3960 nM and 8.95 nM.
For `O=C(/C=C/c1ccc(O)c(O)c1)Nc1cccc(Cl)c1`, in that order: 3810 nM and 1870 nM.
Consider `O=C(/C=C/c1cccc(O)c1)Nc1ccccc1F`, for which the IC50 came to 4120 nM in test [1] and 9.09 nM in test [2].
With `O=C(/C=C/c1ccc(O)c(O)c1)NCCc1ccccc1` [CAFFEIC ACID PHENETHYL AMIDE], the IC50 in test [1] came out at 3300 nM; in test [2], 8.2 nM.
For `O=C(/C=C/c1ccccc1)NCCc1ccccc1`, the IC50 in test [1] turned out to be 3250 nM; in test [2], 9.13 nM.
With `O=C(/C=C/c1ccc(O)c(O)c1)Nc1cccc(F)c1`, the figures for the IC50 in test [1] and in test [2] were 4300 nM and 1820 nM, respectively.
For `Cc1cccc(NC(=O)/C=C/c2ccccc2)c1` [N-M-TOLYLCINNAMAMIDE], the half-maximal inhibitory concentration (IC50) came to 4590 nM in test [1] and 1950 nM in test [2].
As to `O=C(/C=C/c1ccc(O)c(O)c1)NCc1ccccc1`, the IC50 in test [1] stood at 3250 nM; in test [2] it was 8.22 nM.
